Test results as given in patent US7638554B2, “Flavanoids as chemotherapeutic, chemopreventive, and antiangiogenic agents” (SRI International, priority 2002, dated 2009).
Read-outs that look alike come from different tables or passages of the source.

Legend:
[1] = test system: MCF-7 (ER+) breast cancer cell line; experiment: Growth inhibition assay, MTT, MCF-7 breast cancer cells; type: cell-based, human; details: MTT assay, eight days, average of at least two experiments, read-out: GROWTH INHIBITION (IC50) MCF-7 (ER+)
Experimental: (§1) Compounds of the invention were tested for their ability to inhibit growth in two breast cancer cell lines, MCF-7 (ER+) and MDA-MB-231 (ER−).
(§2) The growth inhibition assays were conducted using routine methods. Briefly, the cells were seeded in 24-well plates at a density of 2000 cells per well in 200 μL of […] growth medium. To each well was added 10 μL of DMSO containing the dissolved test compound; final DMSO concentration in each well was not more than 0.5%. Each test compound was assayed at concentrations of 0.4, 2, 10, and 50 μM. The plates were incubated for eight days, with the media and test solutions replaced every third day. On Day 8, the viable cells were measured by the MTT assay, as described in Mosmann et al. (1983), “Rapid Colorimetric Assay for Cellular Growth and Survival: Application to Proliferation and Cytotoxicity,” J. Immunol. Method. 65:55-63. The optical density at 575 nm of each test well was measured and compared to that for control wells, and the data used to calculate the percentage of growth inhibition at different concentrations. The IC50 value (the concentration of growth inhibitor that results in 50% growth inhibition of the cells in culture relative to control cells not exposed to any growth inhibitor) was determined by plotting dose-response curves.
(§3) The calculated IC50 values are set forth in Table 1, with the results representing the average of at least two experiments conducted for each compound at each of the four concentrations.

[2] = test system: MDA-MB-231 (ER−) breast cancer cell line; experiment: Growth inhibition assay, MTT, MDA-MB-231 breast cancer cells; type: cell-based, human; details: eight days, average of at least two experiments
Experimental: as §1, §2, §3

[3] = test system: prostate cancer cell line LNCaP; experiment: Growth inhibition, sulforhodamine-based protein determination, LNCaP; type: cell-based; details: Homo sapiens, Table 5, read-out: Growth Inhibition (IC50), LNCaP cells
Experimental: The novel compound SR 13179 was assayed for its ability to inhibit growth in several cancer cell lines. The cell lines studied included breast cancer cell line MCF-7 (ER+); prostate cancer cell lines LNCaP, PC3, and DU145; lung cancer cell line A427; ovarian cancer cell lines IGROV1, OVCAR-3, OVCAR-4, OVCAR-5, OVCAR-8, and SK-OV-3; and colon cancer cell lines COLO 205, HCC-2998, HCT-116, HCT-15, HT29, KM12, AND SW-620.
The growth assays for the breast cancer cell lines were conducted according to the method of Example 16. For the other cell lines, each assay was conducted with continuous exposure to the test compound at four log concentrations for six days, using a sulforhodamine-based protein determination to measure growth inhibition.
The procedure of Example 20 was used to evaluate the growth inhibitory effect of various compounds of the invention on LNCaP cells.

[4] = test system: chick chorioallantoic membrane (CAM) blood vessels; experiment: Chick chorioallantoic membrane (CAM) assay for antiangiogenic activity; type: in vivo; details: 11.1 μg/CAM, once daily for 12-14 days
Experimental: The CAM assay, which is widely applied to evaluate in vivo antiangiogenic activity, was utilized with SR 13179.
The methods used were those of Folkman (Auerbach et al. (1974) Dev. Biol. 41:391-394), with some modifications. The test compound was dissolved in saline and methylcellulose, and the embryos dosed once daily for 12-14 days. Blood vessel density of each embryo was measured as the quantitative endpoint. The known antiangiogenic compound medroxyprogesterone acetate (MPA) was used as a positive control.

[5] = Homo sapiens, MDA-MB-231, 192 h

IC50 ([1]; Homo sapiens, MCF7, 192 h)	IC50 [2, 5]	Molecule	also measured
> 50 µM	> 50 µM	O=C1CC(c2cc(OCc3ccccc3)c(OCc3ccccc3)c(OCc3ccccc3)c2)Oc2cc(OCc3ccccc3)cc(OCc3ccccc3)c21 (centres unmarked) [SR 13180, 5,7-BIS-BENZYLOXY-2-(3,4,5-TRIS-BENZYLOXY-PHENYL)-CHROMAN-4-ONE]	
7.32 µM	9.84 µM	O=C1CC(c2cc(OCc3ccccc3)c(OCc3ccccc3)c(OCc3ccccc3)c2)Oc2c1ccc1ccccc21 (centres unmarked) [SR 13186, 2-(3,4,5-TRIS-BENZYLOXY-PHENYL)-2,3-DIHYDRO-BENZO[H]CHROMEN-4-ONE]	
> 50 µM	39 µM	COc1cc(/C=C/C(=O)c2ccc3ccccc3c2O)cc(OC)c1OC [SR 13176, 1-(1-Hydroxy-naphthalen-2-yl)-3-(3,4,5-trimethoxyphenyl)-propenone]	
6.29 µM		COc1cc(C2CC(O)c3c(ccc4ccccc34)O2)cc(OC)c1OC (centres unmarked) [SR 13187, 3-(3,4,5-TRIMETHOXYPHENYL)-2,3-DIHYDRO-1H-BENZO[F]CHROMEN-1-OL]	IC50 [3]: 17.7 µM
5.08 µM	0.562 µM	O=C(/C=C/c1cc(OCc2ccccc2)c(OCc2ccccc2)c(OCc2ccccc2)c1)c1ccc2ccccc2c1O [SR 13185, 1-(1-HYDROXY-NAPHTHALEN-2-YL)-3-(3,4,5-TRIS-BENZYLOXY-PHENYL)-PROPENONE]	

Continued, molecule first:

Molecule	IC50 ([1]; Homo sapiens, MCF7, 192 h)	IC50 [2, 5]	also measured
COc1cc(C2CC(=O)c3c(ccc4ccccc34)O2)cc(OC)c1OC (centres unmarked) [SR 13181, 3′,4′,5′-TRIMETHOXY-B-NAPHTHAFLAVAN-4-ONE]			IC50 [1]: > 100 µM; IC50 [2]: > 100 µM
3-(3,4,5-Trimethoxyphenyl)-2,3-dihydro-benzo[F]chromen-1-one [SR 13182]			IC50 [1]: > 50 µM; IC50 [2]: > 50 µM
COc1ccc(C2CC(=O)c3c(OC)cc(OC)cc3O2)cc1 (centres unmarked) [SR 13188, 5,7-DIMETHOXY-2-(4-METHOXY-PHENYL)-CHROMAN-4-ONE]	> 50 µM	> 50 µM	IC50 [3]: 3.34 µM
O=C(C=Cc1cc(OCc2ccccc2)c(OCc2ccccc2)c(OCc2ccccc2)c1)c1c(O)cc(OCc2ccccc2)cc1OCc1ccccc1 [SR 13178, 1-(2,4-Bis-benzyloxy-6-hydroxyphenyl)-3-(3,4,5-tris-benzyloxy-phenyl)-propenone]			IC50 [1]: 53 µM; IC50 [2]: > 100 µM
COc1cc(C2CC(=O)c3ccc4ccccc4c3O2)cc(OC)c1OC (centres unmarked) [SR 13177, 2-(3,4,5-TRIMETHOXYPHENYL)-2,3-DIHYDRO-BENZO[H]CHROMEN-4-ONE]	4.65 µM		IC50 [3]: 2.52 µM
OC1CC(c2cc(OCc3ccccc3)c(OCc3ccccc3)c(OCc3ccccc3)c2)Oc2cc(OCc3ccccc3)cc(OCc3ccccc3)c21 (centres unmarked) [SR 13183, 5,7-BIS-BENZYLOXY-2-(3,4,5-TRIS-BENZYLOXY-PHENYL)-CHROMAN-4-OL]	> 100 µM	13.6 µM	
OC1CC(c2cc(OCc3ccccc3)c(OCc3ccccc3)c(OCc3ccccc3)c2)Oc2c1ccc1ccccc21 (centres unmarked) [SR 13191, 2-(3,4,5-TRIS-BENZYLOXY-PHENYL)-3,4-DIHYDRO-2H-BENZO[H]CHROMEN-4-OL]	19.9 µM	> 50 µM	IC50 [3]: 6.58 µM
CC(=O)O[C@]1(C(C)=O)CC[C@H]2[C@@H]3C[C@H](C)C4=CC(=O)CC[C@]4(C)[C@H]3CC[C@@]21C [MPA, medroxyprogesterone acetate, reference compound]			Blood vessel density score [4]: 4.5 ± 2.3; Percent inhibition relative to control [4]: 58%
COc1cc([C@@H]2CC(O)c3cc4c(cc3O2)CCCC4)cc(OC)c1OC (some centres unmarked) [SR 13817, 5-(4-hydroxy-3,4,6,7,8,9-hexahydro-2H-benzo[g]chromen-2-yl)benzene-1,2,3-trimethoxy]			IC50 [1]: 0.56 µM; IC50 [2]: 1.51 µM
COc1ccc(C2CC(O)c3c(OC)cc(OC)cc3O2)cc1 (centres unmarked) [SR 13189, 5,7-DIMETHOXY-2-(4-METHOXY-PHENYL)-CHROMAN-4-OL]	> 50 µM	> 50 µM	
